{"source": "patent US20160137746A1", "about": "“METHODS FOR TREATING HIGH CARDIOVASCULAR RISK PATIENTS WITH HYPERCHOLESTEROLEMIA” (Sanofi Biotechnology, priority 2014, published 2016)", "assay_type_in_all_cases": "in vivo, human", "key": {"[1]": {"system": "high cardiovascular risk patients with hypercholesterolemia", "experiment": "ODYSSEY LONG TERM: lipid efficacy of alirocumab 150 mg Q2W vs placebo", "conditions": "intention-to-treat, Week 78 (final analysis)"}, "[2]": {"system": "high cardiovascular risk patients with hypercholesterolemia", "experiment": "ODYSSEY COMBO I: lipid efficacy of alirocumab vs placebo, add-on to maximally tolerated statin, 52 weeks", "text": "Each of the COMBO studies was randomized, double-blinded, and placebo-controlled.\nThe primary efficacy endpoint for each study was the difference between treatment arms in the percent change in LDL-C from baseline to Week 24.\nApo, apolipoprotein; HDL-C, high-density lipoprotein cholesterol; ITT, intent-to-treat; LDL-C, low-density lipoprotein cholesterol; Lp(a), lipoprotein (a); TG, triglycerides.\nCOMBO I was a Phase 3, randomized, double-blind, placebo-controlled, parallel-group, multicenter, 52-week study.\nAfter randomization, patients entered a double-blind treatment period of 52 weeks. […] Patients randomized to placebo received a 1 ml SC placebo injection from an identical auto-injector.\nTo maintain blinding, the patient and investigator were not informed of the Week 8 LDL-C levels (or any lipid values after randomization); continuation or up-titration of dose occurred in an automated and blinded manner.\nPrimary analyses of efficacy endpoints were conducted using an ITT approach (based on the ITT population defined above), including all lipid data, regardless of whether the patient was continuing therapy or not. This corresponds to ITT estimands, defined for primary and key secondary endpoints. In addition, analyses were also conducted using an on-treatment approach (based on the mITT population defined above), including lipid data collected during the efficacy treatment period. This corresponds to on-treatment estimands of key secondary endpoints.\nWith regards to the primary efficacy analysis (ITT approach), the percent change in calculated LDL-C from baseline to Week 24 was analyzed using a mixed-effect model with repeated measures (MMRM) approach. All post-baseline data available from Week 4 to Week 52 analysis windows were used and missing data were accounted for by the MMRM."}, "[3]": {"system": "high cardiovascular risk patients with hypercholesterolemia", "experiment": "ODYSSEY LONG TERM: ophthalmologic sub-study", "conditions": "including the ophthalmological sub-study", "text": "Patients underwent ophthalmologic assessments by ophthalmologists/optometrists at the screening period. If the patients were deemed eligible for the main study trial and fulfilled the additional eligibility criteria for the sub-study, then the patients underwent ophthalmologic assessments every 6 months during the 18-month double-blind treatment period\nThe primary endpoint was adverse events related to ophthalmologic abnormalities (using SMQ “optic nerve disorders”, “retinal disorders” and “corneal disorders”) over the study duration."}, "[4]": {"conditions": "ITT, Week 24, listed as alirocumab"}, "[5]": {"conditions": "Week 24, 'Combo I: Overall Results' paragraph"}}}
{"substance": "Alirocumab: human anti-PCSK9 antibody; HCVR SEQ ID NO:1, LCVR SEQ ID NO:6; CDRs SEQ ID NOs 2/3/4/7/8/10", "values": [{"measurement": "Percent decrease in LDL cholesterol", "setting": "[1]", "result": 52, "unit": "%"}, {"measurement": "Patients with automatic up-titration at Week 12 from 75 mg Q2W to 150 mg Q2W (Week 8 LDL-C ≧70 mg/dL)", "setting": "[2]; 32 of 191 patients with at least one injection after Week 12", "result": 16.8, "unit": "%"}, {"measurement": "Patients who reached LDL-C <70 mg/dL despite baseline LDL-C >190 mg/dL", "setting": "[2]; 'Combo I: Overall Results' paragraph", "result": 32, "unit": "%"}, {"measurement": "Calculated LDL-C change from baseline, LS mean", "setting": "[2]; ITT, Week 4", "result": -1.308, "unit": "mmol/L"}, {"measurement": "Calculated LDL-C change from baseline, LS mean (SE)", "setting": "[2]; ITT, Week 4", "result": "−50.5 (1.7) mg/dL"}, {"measurement": "Calculated LDL-C value, LS mean", "setting": "[2]; ITT, Week 4", "result": 1.327, "unit": "mmol/L"}, {"measurement": "Calculated LDL-C value, LS mean (SE)", "setting": "[2]; ITT, Week 4", "result": "51.2 (1.7) mg/dL"}, {"measurement": "Calculated LDL-C, LS mean (SE) percent change from baseline", "setting": "[2]; ITT, Week 4", "result": "−50.6 (1.7) %"}, {"measurement": "Calculated LDL-C change from baseline, LS mean", "setting": "[2]; ITT, Week 8", "result": -1.372, "unit": "mmol/L"}, {"measurement": "Calculated LDL-C change from baseline, LS mean (SE)", "setting": "[2]; ITT, Week 8", "result": "−53.0 (1.7) mg/dL"}, {"measurement": "Calculated LDL-C value, LS mean", "setting": "[2]; ITT, Week 8", "result": 1.264, "unit": "mmol/L"}, {"measurement": "Calculated LDL-C value, LS mean (SE)", "setting": "[2]; ITT, Week 8", "result": "48.8 (1.7) mg/dL"}, {"measurement": "Calculated LDL-C, LS mean (SE) percent change from baseline", "setting": "[2]; ITT, Week 8", "result": "−51.6 (1.7) %"}, {"measurement": "Apo-B percent change, LS mean difference vs placebo", "setting": "[2]; ITT, Week 12", "result": "placebo of −38.2%"}, {"measurement": "Calculated LDL-C change from baseline, LS mean", "setting": "[2]; ITT, Week 12", "result": -1.207, "unit": "mmol/L"}, {"measurement": "Calculated LDL-C change from baseline, LS mean (SE)", "setting": "[2]; ITT, Week 12", "result": "−46.6 (2.0) mg/dL"}, {"measurement": "Calculated LDL-C percent change, LS mean difference vs placebo", "setting": "[2]; ITT, Week 12", "result": "placebo of −47.4%"}, {"measurement": "Calculated LDL-C value, LS mean", "setting": "[2]; ITT, Week 12", "result": 1.428, "unit": "mmol/L"}, {"measurement": "Calculated LDL-C value, LS mean (SE)", "setting": "[2]; ITT, Week 12", "result": "55.1 (2.0) mg/dL"}, {"measurement": "Non-HDL-C percent change, LS mean difference vs placebo", "setting": "[2]; ITT, Week 12", "result": "placebo of −40.1%"}, {"measurement": "Total-C percent change, LS mean difference vs placebo", "setting": "[2]; ITT, Week 12", "result": "placebo of −26.4%"}, {"measurement": "Calculated LDL-C, LS mean (SE) percent change from baseline", "setting": "[2]; ITT, Week 12 (before possible up-titration)", "result": "−46.3 (1.8) %"}, {"measurement": "Calculated LDL-C, LS mean (SE) percent change from baseline", "setting": "[2]; ITT, Week 12 (before possible up-titration), listed as alirocumab", "result": "−46.3", "unit": "%"}, {"measurement": "Calculated LDL-C percent change, LS mean difference vs placebo", "setting": "[2]; ITT, Week 12, listed as alirocumab", "result": "−47.4", "unit": "%"}, {"measurement": "Calculated LDL-C change from baseline, LS mean", "setting": "[2]; ITT, Week 16", "result": -1.345, "unit": "mmol/L"}, {"measurement": "Calculated LDL-C change from baseline, LS mean (SE)", "setting": "[2]; ITT, Week 16", "result": "−51.9 (1.9) mg/dL"}, {"measurement": "Calculated LDL-C value, LS mean", "setting": "[2]; ITT, Week 16", "result": 1.291, "unit": "mmol/L"}, {"measurement": "Calculated LDL-C value, LS mean (SE)", "setting": "[2]; ITT, Week 16", "result": "49.8 (1.9) mg/dL"}, {"measurement": "Calculated LDL-C, LS mean (SE) percent change from baseline", "setting": "[2]; ITT, Week 16", "result": "−50.5 (1.9) %"}, {"measurement": "Apo-B percent change, LS mean difference vs placebo", "setting": "[2]; ITT, Week 24", "result": "placebo of −35.8%"}, {"measurement": "Calculated LDL-C change from baseline, LS mean", "setting": "[2]; ITT, Week 24", "result": -1.303, "unit": "mmol/L"}, {"measurement": "Calculated LDL-C change from baseline, LS mean (SE)", "setting": "[2]; ITT, Week 24", "result": "−50.3 (2.0) mg/dL"}, {"measurement": "Calculated LDL-C percent change, LS mean difference (SE) vs placebo", "setting": "[2]; ITT, Week 24", "result": "−45.9 (3.3) %"}, {"measurement": "Calculated LDL-C value, LS mean", "setting": "[2]; ITT, Week 24", "result": 1.332, "unit": "mmol/L"}, {"measurement": "Calculated LDL-C value, LS mean (SE)", "setting": "[2]; ITT, Week 24", "result": "51.4 (2.0) mg/dL"}, {"measurement": "Calculated LDL-C, LS mean (SE) percent change from baseline", "setting": "[2]; ITT, Week 24", "result": "−48.2 (1.9) %"}, {"measurement": "Calculated LDL-C, LS mean difference (SE) vs placebo, pattern-mixture-model sensitivity analysis", "setting": "[2]; ITT, Week 24", "result": "−42.7 (3.7) %"}, {"measurement": "HDL-C percent change, LS mean difference vs placebo", "setting": "[2]; ITT, Week 24", "result": "placebo of 7.3%"}, {"measurement": "Lp(a) percent change, combined estimate for adjusted mean difference vs placebo", "setting": "[2]; ITT, Week 24", "result": "vs. placebo of −14.6%"}, {"measurement": "Non-HDL-C percent change, LS mean difference vs placebo", "setting": "[2]; ITT, Week 24", "result": "placebo of −37.5%"}, {"measurement": "Total-C percent change, LS mean difference vs placebo", "setting": "[2]; ITT, Week 24", "result": "placebo of −25%"}, {"measurement": "Calculated LDL-C percent change, LS mean difference (SE) vs placebo", "setting": "[2]; [4]", "result": "−45.9", "unit": "%"}, {"measurement": "Calculated LDL-C, LS mean (SE) percent change from baseline", "setting": "[2]; [4]", "result": "−48.2", "unit": "%"}, {"measurement": "Fasting TGs percent change, combined estimate for adjusted mean difference vs placebo", "setting": "[2]; ITT, Week 24, not statistically significant (p 0.7597)", "result": "vs. placebo of −1.2%"}, {"measurement": "Calculated LDL-C change from baseline, LS mean", "setting": "[2]; ITT, Week 36", "result": -1.225, "unit": "mmol/L"}, {"measurement": "Calculated LDL-C change from baseline, LS mean (SE)", "setting": "[2]; ITT, Week 36", "result": "−47.3 (2.2) mg/dL"}, {"measurement": "Calculated LDL-C value, LS mean", "setting": "[2]; ITT, Week 36", "result": 1.411, "unit": "mmol/L"}, {"measurement": "Calculated LDL-C value, LS mean (SE)", "setting": "[2]; ITT, Week 36", "result": "54.5 (2.2) mg/dL"}, {"measurement": "Calculated LDL-C, LS mean (SE) percent change from baseline", "setting": "[2]; ITT, Week 36", "result": "−44.8 (2.5) %"}, {"measurement": "Calculated LDL-C change from baseline, LS mean", "setting": "[2]; ITT, Week 52", "result": -1.153, "unit": "mmol/L"}, {"measurement": "Calculated LDL-C change from baseline, LS mean (SE)", "setting": "[2]; ITT, Week 52", "result": "−44.5 (2.4) mg/dL"}, {"measurement": "Calculated LDL-C percent change, LS mean difference vs placebo", "setting": "[2]; ITT, Week 52", "result": "placebo of −43%"}, {"measurement": "Calculated LDL-C value, LS mean", "setting": "[2]; ITT, Week 52", "result": 1.483, "unit": "mmol/L"}, {"measurement": "Calculated LDL-C value, LS mean (SE)", "setting": "[2]; ITT, Week 52", "result": "57.2 (2.4) mg/dL"}, {"measurement": "Calculated LDL-C, LS mean (SE) percent change from baseline", "setting": "[2]; ITT, Week 52", "result": "−42.5 (2.5) %"}, {"measurement": "Calculated LDL-C, LS mean (SE) percent change from baseline", "setting": "[2]; ITT, Week 52, listed as alirocumab", "result": "−42.5", "unit": "%"}, {"measurement": "Calculated LDL-C percent change, LS mean difference vs placebo", "setting": "[2]; On-treatment, Week 12", "result": "placebo of −49.3%"}, {"measurement": "Apo-B percent change, LS mean difference vs placebo", "setting": "[2]; On-treatment, Week 24", "result": "placebo of −37.5%"}, {"measurement": "Calculated LDL-C percent change, LS mean difference (SE) vs placebo", "setting": "[2]; On-treatment, Week 24", "result": "−49.9", "unit": "%"}, {"measurement": "Calculated LDL-C, LS mean (SE) percent change from baseline", "setting": "[2]; On-treatment, Week 24", "result": "−50.7 (1.9) %"}, {"measurement": "Non-HDL-C percent change, LS mean difference vs placebo", "setting": "[2]; On-treatment, Week 24", "result": "placebo of −40.4%"}, {"measurement": "Percent LDL-C reduction vs placebo within demographic and patient subgroups", "setting": "[2]; Week 24, FIG. 5", "result": "seen at every level within each subgroup"}, {"measurement": "Absolute mean decrease from baseline in LDL-C", "setting": "[2]; [5]", "result": -90.8, "unit": "mg/dL"}, {"measurement": "Patients who achieved LDL-C <100 mg/dL", "setting": "[2]; [5]", "result": 57, "unit": "%"}, {"measurement": "Change in triglyceride levels", "setting": "[2]; baseline to Week 24", "result": "No significant change"}, {"measurement": "HDL-C percent change from baseline", "setting": "[2]; baseline to Week 24", "result": "3.5 (1.1) %"}, {"measurement": "Additional mean LDL-C reduction at week 24 compared with week 12", "setting": "[2]; patients with dose increase to 150 mg Q2W at week 12", "result": 22.8, "unit": "%"}, {"measurement": "TEAEs related to ophthalmological events", "setting": "[3]", "result": "no particular signal was detected"}]}
